Measurements as given in patent US20190254984A1, “COMPOSITION AND FOOD OR DRINK” (Advanced Medical Frontier Co., Ltd., priority 2012, published 2019).

What was measured:
ob/ob mice [1] = test: Example 5: blood glucose level of genetically obese mice over four weeks; format: in vivo; conditions: Orz even at 320 μg/g of body weight/day, n=14, FIG. 10B
Protocol: (§1) Ob/ob mice were raised at 24° C. under a light/dark cycle of 12 hours/12 hours. The mice were raised in conditions where they were able to freely take feed and water. The body weight of mice was measured every week.
(§2) γ-oryzanol incorporated with PLGA particles was dissolved in distilled water (hereinafter referred to as “Nano Orz”) and administered to the mice using a probe at a dose of 0.3, 1.3, or 5 μg/g of body weight per day for two days every two weeks. As a solution of γ-oryzanol which was not enclosed in the PLGA particle, γ-oryzanol (manufactured by Wako Pure Chemical Industries, Ltd.) was dissolved in a 0.5% methylcellulose solution (hereinafter referred to as “Orz”). Orz was administered to the stomach using a probe everyday for four weeks (5 or 320 μg/g of body weight/day).
Whole blood was collected from the tail vein of mice; and blood glucose was measured using a simple blood glucose meter. A blood sample was further collected from the network of the retro orbital vein. For a glucose tolerance test, the mice were fasted for 18 hours and thereafter administered with glucose at 0.75 g/kg of body weight. The blood glucose level was measured at the predetermined time. […] The concentration of triglycerides in the plasma was determined by Triglyceride E-Test Wako.
(§3) Data were expressed as mean±standard error (s.e.m). […]

ob/ob mice [2] = test: Example 5: glucose tolerance test; format: in vivo; conditions: Orz even at 320 μg/g of body weight/day; n=14; FIG. 11C, 11D
Protocol: as §2
(§4) Whole blood was collected from the tail vein of mice; and blood glucose was measured using a simple blood glucose meter. A blood sample was further collected from the network of the retro orbital vein. For a glucose tolerance test, the mice were fasted for 18 hours and thereafter administered with glucose at 0.75 g/kg of body weight. The blood glucose level was measured at the predetermined time. In addition, for an insulin tolerance test, insulin (0.5 unit/kg of body weight; manufactured by Eli Lilly) was intraperitoneally injected to the mice that had fasted for four hours. The concentration of triglycerides in the plasma was determined by Triglyceride E-Test Wako.
as §3

ob/ob mice [3] = test: Example 2: blood glucose level of ob/ob mice; format: in vivo; conditions: γ-oryzanol alone, oral daily 5 and 320 μg/g of body weight/day; FIG. 2B
Protocol: (§5) First, the γ-oryzanol-incorporating particle was suspended in distilled water at 5%, 1.25%, and 0.31% (w/v). As a control, γ-oryzanol was suspended in 0.5% (w/v) methylcellulose solution (manufactured by Wako Pure Chemical Industries, Ltd.) at 0.05% and 3.2% (0.5 and 32 mg/ml).
(§6) Subsequently, each of the γ-oryzanol-incorporating particle suspensions and the γ-oryzanol suspensions was orally administered to ob/ob mice (five weeks old, male, B6. Lepob/J mice (homozygote (Lepob/Lepob)), made by Charles River Laboratories Japan, Inc.) (n=6) using a probe. For the details, the γ-oryzanol-incorporating particle suspension at 0.3, 1.3, and 5 μg/g of body weight/14 days in terms of γ-oryzanol was administered to the mice for two days followed by a five-day rest period every two weeks; and observation was made for 14 days. The daily dose was 1.1, 4.4, and 17.5 μg/g of body weight/day, respectively. […]
(§7) One week and two weeks after the beginning of the administration, the body weight and blood glucose level of the mice were measured. […] In such a test, following to 18-hour fasting, glucose was orally administered at 0.75 g/kg using a probe; and the blood glucose level was measured from the time of administration to two hours thereafter.

ob/ob mice [4] = test: Example 5: insulin tolerance test; format: in vivo; conditions: Orz even at 320 μg/g of body weight/day; n=14; FIG. 12C, 12D
Protocol: as §2, §4, §3

[5] = test system: IL-8 secretion from TNF-α-stimulated intestinal epithelial cells (Caco-2); test: Example 3: IL-8 secretion upon TNF-α stimulation of Caco-2 cells (ELISA); format: cell-based, human; conditions: 24 h pretreatment with 1 μg/ml of γ-oryzanol; a decrease observed; compared with no and 0.1 μg/ml γ-oryzanol; FIG. 7A
Protocol: As for cells, Caco-2 (RCB0988, RIKEN, the Institute of Physical and Chemical Research) was used. Caco-2 was cultured in a […] culture dish until reaching semiconfluent. As for a medium, Dulbecco modified Eagle's Medium (DMEM, D5796, manufactured by Sigma-Aldrich) was used. To the medium, non-essential amino acids (M7145, manufactured by Sigma-Aldrich) and Penicillin/Streptomycin (hereinafter referred to as “PS”; manufactured by Gibco, Life Technologies Corporation Japan) were added.
Cells with 50 passages were detached with 0.25% trypsin/0.02% EDTA and seeded in a 24-well plate at a concentration of 2×10^5 cells/well. The cells were cultured in DMEM with 10% FBS (fetal bovine serum), 1% non-essential amino acids, and 1% PS for 14 days. The medium was changed every other day; and the cells were sufficiently differentiated to be used the experiment below.
The medium was removed 24 hours before stimulation with TNF-α; and the cells were washed with 1 ml of PBS per well twice. […]
The collected supernatant was subjected to ELISA (enzyme immunity measurement assay) to measure the amount of IL-8 in the supernatant. […] At the same time, the total amount of proteins in the supernatant was measured by using a bicinchoninic acid assay (Pierce BCA Protein Assay Kit, manufactured by Thermo Scientific). […]

MCP-1 = test: Example 5: inflammation marker gene expression in adipose tissues (real time PCR), MCP-1; format: in vivo, mice; conditions: Orz even at 320 μg/g of body weight/day, N=8
Protocol: as §2
(§8) The hypothalamus, the islets of Langerhans, the adipose tissue of the mesentery, the liver, the epididymal adipose tissue, and the subcutaneous adipose tissue were collected from the mice; and the expression level of ER stress marker genes (Chop, ERdj4, and Xbp1s), and inflammation marker genes (TNF-α and MCP-1) was quantified using a quantitative real time polymerase chain reaction. The islets of Langerhans was isolated from mice by digestion with collagenase (Liberase TL; manufactured by Roche Diagnostics K.K.) and purified using Histopaque (trademark) gradient (Histopaque 1077; manufactured by Sigma-Aldrich). […]
as §3

obese mice = conditions: oral γ-oryzanol 320 mg/kg; cited from earlier work
ob/ob mice [6] = test: Example 2: oral glucose tolerance test in ob/ob mice; format: in vivo; conditions: γ-oryzanol alone 5 and 320 μg/g of body weight/day; vs vehicle; FIG. 3C, 3D
Protocol: as §5, §6, §7

Xbp1s = test: Example 5: ER stress marker gene expression in tissues (real time PCR), Xbp1s; format: in vivo, mice; conditions: Orz even at 320 μg/g of body weight/day, N=8
Protocol: as §2
(§9) The hypothalamus, the islets of Langerhans, the adipose tissue of the mesentery, the liver, the epididymal adipose tissue, and the subcutaneous adipose tissue were collected from the mice; and the expression level of ER stress marker genes (Chop, ERdj4, and Xbp1s), and inflammation marker genes (TNF-α and MCP-1) was quantified using a quantitative real time polymerase chain reaction. The islets of Langerhans was isolated from mice by digestion with collagenase (Liberase TL; manufactured by Roche Diagnostics K.K.) and purified using Histopaque (trademark) gradient (Histopaque 1077; manufactured by Sigma-Aldrich).
(§10) Using TRIzol (registered trademark) RNA Isolation Reagents (manufactured by Life Technologies Corporation), total RNA was extracted from each of the tissues; and cDNA was synthesized using iScript (trademark) cDNA Synthesis Kit (manufactured by Bio-Rad Laboratories, Inc.). Next, quantitative real time PCR was carried out using StepOnePlus (trademark) Real-Time PCR System, Fast TaqMan Universal Master Mix, and Fast SYBR Green Master Mix (manufactured by Applied Biosystems). The level of mRNA was normalized with that of 18S rRNA.
(§11) Data were expressed as mean±standard error (s.e.m). One-way analysis of variance, repeated measures analysis of variance, and multiple comparisons following repeated measures analysis of variance (Bonferroni/Dunn method) were employed as appropriate. For analysis of difference between two groups, Student's t-test was employed. […]

TNF-α = test: Example 5: inflammation marker gene expression in adipose tissues (real time PCR), TNF-α; format: in vivo, mice; conditions: Orz even at 320 μg/g of body weight/day, N=8
Protocol: as §2, §8, §3

ob/ob mice [7] = test: Example 5: body weight of genetically obese mice over four weeks; format: in vivo; conditions: Orz everyday for four weeks, even at 320 μg/g of body weight/day; n=14; FIG. 9B
Protocol: as §1, §2
Data were expressed as mean±standard error (s.e.m). One-way analysis of variance, repeated measures analysis of variance, and multiple comparisons following repeated measures analysis of variance (Bonferroni/Dunn method) were employed as appropriate. For analysis of difference between two groups, Student's t-test was employed. Difference was considered to be significant with P<0.05.

ERdj4 = test: Example 5: ER stress marker gene expression in tissues (real time PCR), ERdj4; format: in vivo, mice; conditions: Orz even at 320 μg/g of body weight/day
Protocol: as §2, §8, §3

ob/ob mice [8] = test: Example 5: plasma triglyceride; format: in vivo; conditions: Orz at the same amount as Nano Orz; n=6; FIG. 13
Protocol: as §2, §4, §3

ob/ob mice [9] = test: Example 2: body weight of ob/ob mice after oral administration; format: in vivo; conditions: γ-oryzanol alone, oral daily 5 and 320 μg/g of body weight/day; FIG. 1B
Protocol: The γ-oryzanol-incorporating particle prepared in Example 1 was orally administered to mice for evaluation.
as §5, §6, §7

Chop = test: Example 5: ER stress marker gene expression in tissues (real time PCR), Chop; format: in vivo, mice; conditions: for expression level of Chop: hypothalamus, Orz even at 320 μg/g of body weight/day
Protocol: as §2, §9, §10, §11

γ-oryzanol
blood glucose level (ob/ob mice [1]): no significant change | glucose tolerance (glucose tolerance test, blood glucose and AUC) (ob/ob mice [2]): no improvement | blood glucose level (ob/ob mice [3]): not observed | insulin tolerance (insulin tolerance test, blood glucose and AUC) (ob/ob mice [4]): no improvement | amount of IL-8 in the supernatant [5]: no significant difference | expression level of MCP-1 (MCP-1; epididymal adipose tissue, FIG. 16B): did not inhibit | expression level of MCP-1 (MCP-1; subcutaneous fatty tissue, FIG. 16D): did not inhibit | blood glucose level (obese mice): decreased | insulin secretion (obese mice): promotion | lipid absorption from the small intestine (obese mice): inhibition | taste for high fat diets (obese mice): restriction | blood glucose level in oral glucose tolerance test (ob/ob mice [6]): comparable | expression level of Xbp1s (Xbp1s; adipose tissue in the mesentery, FIG. 15B): did not inhibit | expression level of Xbp1s (Xbp1s; islets of Langerhans, FIG. 14D): did not inhibit | expression level of Xbp1s (Xbp1s; liver, FIG. 15D): did not inhibit | expression level of TNF-α (TNF-α; epididymal adipose tissue, FIG. 16A): did not inhibit | expression level of TNF-α (TNF-α; subcutaneous fatty tissue, FIG. 16C): did not inhibit | weight gain (ob/ob mice [7]): no significant suppression | expression level of ERdj4 (ERdj4; islets of Langerhans, N=8, FIG. 14C): did not inhibit | expression level of ERdj4 (ERdj4; liver, printed in the sentence on Chop (FIG. 15C)): did not inhibit | concentration of plasma triglyceride (ob/ob mice [8]): not decreased | weight gain (ob/ob mice [9]): not observed | expression of Chop (Chop; adipose tissue in the mesentery, Orz 320 μg/g of body weight/day, N=8, FIG. 15A): significantly inhibited | expression level of Chop (Chop; N=8, FIG. 14A): did not inhibit | expression level of Chop (Chop; printed in the sentence on ERdj4 (FIG. 14B)): did not inhibit
